Data as given in patent publication US20240277729A1, “METHODS OF TREATMENT AND PHARMACEUTICAL COMPOSITIONS USING AN SGLT-2 INHIBITOR AND A NEUROLEPTIC AGENT” (Boehringer Ingelheim International GmbH, priority 2011, published 2024).
“Also recorded” adds a separate entry of the source.

Assays:
[1] = tested on: Female Wistar rats; conditions: neuroleptic alone; olanzapine 8 mg/kg sc, clozapine 8 mg/kg sc, haloperidol 4 mg/kg ip; oral glucose load 2 g/kg; FIG. 1A
[2] = metformin on its own, in the diabetic; cited from earlier work

| Structure (SMILES) | glucose tolerance in OGTT [1] | average improvement in the HbA1c value [2] |
| --- | --- | --- |
| O=C(CCCN1CCC(O)(c2ccc(Cl)cc2)CC1)c1ccc(F)cc1 [haloperidol, 4-[4-(4-chlorophenyl)-4-hydroxy-1-piperidyl]-1-(4-fluorophenyl)-butan-1-one] | impaired glucose tolerance; also recorded: worsening of the OGTT was less pronounced |  |
| CN1CCN(C2=Nc3cc(Cl)ccc3Nc3ccccc32)CC1 [Clozapine, 8-chloro-11-(4-methylpiperazin-1-yl)-5H-dibenzo[b,e][1,4]diazepine] | impaired glucose tolerance |  |
| CN(C)C(=N)N=C(N)N [metformin] |  | 1.0-1.5% |
